# Measurements as given in patent US10883993B2, “P53 biomarkers” (MULTIVIR INC., priority 2008, dated 2021).
# Experiments:
# [1] = test system: SCCHN; conditions: monotherapy studies in SCCHN, ITT population, standard of care drugs; cited from earlier work
# [2] = test system: SCCHN patients; test: Safety data, Phase III SCCHN study (ADVEXIN vs methotrexate)
# [3] = test system: recurrent SCCHN; test: Phase 3 pivotal trial T301 (ADVEXIN or methotrexate), tumor response and survival; format: in vivo, human
# Description: Favorable response to the therapy may comprise reduction in tumor size or burden, blocking of tumor growth, reduction in tumor-associated pain, reduction in tumor-associated pathology, reduction in tumor-associated symptoms, tumor non-progression, increased disease free interval, increased time to progression, induction of remission, reduction of metastasis, or increased patient survival. Particularly, “tumor response” may refer to tumor growth control (tumor growth control (TGC) defined by complete (CR) and partial (PR) reductions in size of >50% or Stable Disease (SD); TGC=CR+PR+SD) or reductions in tumor size of >10%.
# Table 2 summarizes the results of these analyses and provides the corresponding data for patients treated with methotrexate in the pivotal Phase 3 T301 study.
# [4] = biological target: T1, αv/β3 vascular integrin (Homo sapiens, UniProt P05106+P06756); conditions: Phase II clinical trials in humans, without harmful side effects; cited from earlier work
# T1 construct: the new blood vessels in tumors express a vascular integrin, designated αv/β3; host or cells: tumour blood vessels of human patients
# T1 sequence (P06756 31-889 limits assumed): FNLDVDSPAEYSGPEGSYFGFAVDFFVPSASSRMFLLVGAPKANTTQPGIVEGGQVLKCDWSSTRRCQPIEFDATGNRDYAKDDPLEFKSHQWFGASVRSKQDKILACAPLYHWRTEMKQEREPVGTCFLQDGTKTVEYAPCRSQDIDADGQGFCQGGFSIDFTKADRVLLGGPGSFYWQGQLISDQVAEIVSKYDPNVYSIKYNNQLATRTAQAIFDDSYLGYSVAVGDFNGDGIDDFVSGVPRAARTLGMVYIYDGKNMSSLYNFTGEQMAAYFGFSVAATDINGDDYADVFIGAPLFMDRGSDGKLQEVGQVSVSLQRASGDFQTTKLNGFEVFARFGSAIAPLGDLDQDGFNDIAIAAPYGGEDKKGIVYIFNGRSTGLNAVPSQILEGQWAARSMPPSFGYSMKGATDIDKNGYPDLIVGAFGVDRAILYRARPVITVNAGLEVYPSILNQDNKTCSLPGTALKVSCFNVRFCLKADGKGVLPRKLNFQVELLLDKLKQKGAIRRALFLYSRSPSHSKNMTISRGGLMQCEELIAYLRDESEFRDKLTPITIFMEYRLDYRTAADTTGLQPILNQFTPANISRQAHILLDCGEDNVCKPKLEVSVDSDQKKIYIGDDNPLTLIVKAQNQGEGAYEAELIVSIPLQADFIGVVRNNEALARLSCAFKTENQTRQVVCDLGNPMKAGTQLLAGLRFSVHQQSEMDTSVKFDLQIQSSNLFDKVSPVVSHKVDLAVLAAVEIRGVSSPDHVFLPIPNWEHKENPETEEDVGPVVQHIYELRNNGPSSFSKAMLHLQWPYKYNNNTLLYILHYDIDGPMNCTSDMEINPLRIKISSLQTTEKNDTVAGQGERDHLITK
# T1 sequence (P06756 891-1048 limits assumed): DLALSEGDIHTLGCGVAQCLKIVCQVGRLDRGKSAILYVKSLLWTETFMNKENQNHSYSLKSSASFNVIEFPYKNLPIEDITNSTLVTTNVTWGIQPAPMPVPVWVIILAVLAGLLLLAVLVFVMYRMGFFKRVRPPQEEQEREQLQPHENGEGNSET
# T1 sequence (P05106 27-788): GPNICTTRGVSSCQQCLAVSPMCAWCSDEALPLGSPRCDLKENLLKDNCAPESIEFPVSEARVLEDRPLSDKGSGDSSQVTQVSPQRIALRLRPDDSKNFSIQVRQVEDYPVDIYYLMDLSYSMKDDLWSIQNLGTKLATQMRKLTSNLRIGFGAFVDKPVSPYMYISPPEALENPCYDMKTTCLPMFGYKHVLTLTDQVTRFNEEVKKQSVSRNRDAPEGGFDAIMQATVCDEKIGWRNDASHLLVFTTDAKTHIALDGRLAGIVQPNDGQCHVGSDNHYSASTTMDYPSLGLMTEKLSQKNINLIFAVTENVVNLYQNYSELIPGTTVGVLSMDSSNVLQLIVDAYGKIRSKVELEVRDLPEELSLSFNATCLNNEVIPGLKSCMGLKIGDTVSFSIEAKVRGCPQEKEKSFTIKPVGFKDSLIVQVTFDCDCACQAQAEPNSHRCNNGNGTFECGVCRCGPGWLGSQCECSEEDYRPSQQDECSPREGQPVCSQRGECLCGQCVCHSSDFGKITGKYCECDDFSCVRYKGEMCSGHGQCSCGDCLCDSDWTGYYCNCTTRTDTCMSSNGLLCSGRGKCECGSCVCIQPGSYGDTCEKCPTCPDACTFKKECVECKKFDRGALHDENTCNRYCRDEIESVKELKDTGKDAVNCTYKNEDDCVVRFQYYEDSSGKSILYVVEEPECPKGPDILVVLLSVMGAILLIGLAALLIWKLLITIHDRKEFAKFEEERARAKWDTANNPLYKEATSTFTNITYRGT
# [5] = test system: αv/β3 vascular integrin; conditions: mice, without harming them; cited from earlier work
# [6] = T301, p53 gene status wild type
# [7] = T301 methotrexate ITT population
molecule,measurement,setting,value
Carboplatin/5FU,Median Overall Survival,[1],5.0 months
CN(Cc1cnc2nc(N)nc(N)c2n1)c1ccc(C(=O)N[C@@H](CCC(=O)O)C(=O)O)cc1 [Methotrexate],Grade 3 or 4 laboratory event: leukopenia,[2]; Phase III SCCHN study,12.1%
same,Grade 3 or 4 laboratory event: lymphopenia,[2]; Phase III SCCHN study,25.6%
same,Grade 3 or 4 laboratory event: neutropenia,[2]; Phase III SCCHN study,12.1%
same,Incidence of Grade 3 or 4 laboratory events,[2]; Phase III SCCHN study,39.5%
same,Body weight loss over time,"[2]; Phase III SCCHN study, compared with ADVEXIN patients",more body weight loss
same,Deaths attributed to treatment,"[2]; Phase III recurrent SCCHN study, due to leukopenia",one death
same,"Incidences of stomatitis, nausea, pneumonia, paresthesia, leucopenia and neutropenia","[2]; Phase III study, relative to ADVEXIN",higher incidences
same,"Median survival, patients with p53 profiles favorable for ADVEXIN efficacy",[3]; T301,4.3 months
same,"Median survival, patients with p53 profiles unfavorable for ADVEXIN efficacy",[3]; T301,6.0 months
same,"Tumor Growth Control, patients with TGC / patients","[3]; T301, p53 gene status mutated",13/15
same,"Tumor Growth Control, percentage of patients","[3]; T301, p53 gene status mutated",87%
same,"Tumor Growth Control, patients with TGC / patients",[3]; [6],11/20
same,"Tumor Growth Control, percentage of patients",[3]; [6],55%
same,"Median Survival, TGC Non-Responders",[3]; T301 ITT population,3.8 months
same,"Median Survival, TGC Responders",[3]; T301 ITT population,7.5 months
same,% Tumor Growth Control,"[3]; T301 ITT population, TGC = CR+PR+SD",53.3%
same,% Tumor Response (≥10% tumor reduction),[3]; [7],18.3%
same,% Tumor Response (≥50% tumor reduction),[3]; [7],11.7%
same,"Median Survival, Non-Responders (≥10% tumor reduction criterion)",[3]; [7],4.3 months
same,"Median Survival, Non-Responders (≥50% tumor reduction criterion)",[3]; [7],4.6 months
same,"Median Survival, Responders (≥10% tumor reduction)",[3]; [7],11.9 months
same,"Median Survival, Responders (≥50% tumor reduction)",[3]; [7],14.4 months
same,Median Overall Survival,[1],4.2-5.6 months
CC(=O)O[C@@]12CO[C@@H]1C[C@H](O)[C@@]1(C)C(=O)[C@H](O)C3=C(C)[C@@H](OC(=O)[C@H](O)[C@@H](NC(=O)OC(C)(C)C)c4ccccc4)C[C@@](O)([C@@H](OC(=O)c4ccccc4)[C@H]21)C3(C)C [Docetaxel],Median Overall Survival,[1],6.6 months
CC(=O)O[C@H]1C(=O)[C@@]2(C)[C@H]([C@H](OC(=O)c3ccccc3)[C@]3(O)C[C@H](OC(=O)[C@H](O)[C@@H](NC(=O)c4ccccc4)c4ccccc4)C(C)=C1C3(C)C)[C@]1(OC(C)=O)CO[C@@H]1C[C@@H]2O [Paclitaxel],Median Overall Survival,[1],4.4 months
C#Cc1cccc(Nc2ncnc3cc(OCCOC)c(OCCOC)cc23)c1 [Erlotinib],Median Overall Survival,[1],5.8 months
Cisplatin/5FU,Median Overall Survival,[1],5.6-6.4 months
"Vitaxin®: a monoclonal antibody directed against the αv/β3 vascular integrin (antibody, chains of the INN, looked up, V domains shown) VH: QVQLVESGGGVVQPGRSLRLSCAASGFTFSSYDMSWVRQAPGKGLEWVAKVSSGGGSTYYLDTVQGRFTISRDNSKNTLYLQMNSLRAEDTAVYYCARHLHGSFASWGQGTTVTVSS VL: EIVLTQSPATLSLSPGERATLSCQASQSISNFLHWYQQRPGQAPRLLIRYRSQSISGIPARFSGSGSGTDFTLTISSLEPEDFAVYYCQQSGSWPLTFGGGTKVEIK",Effect on solid tumors,[4],some promise in shrinking solid tumors
same,Effect on tumors,[5],shrinks tumors
